Experimental data reported in patent US20160106107A1, “Compositions and Methods for Treating Microorganism” (priority 2006, published 2016).
Values joined by “and” are separate entries in the source; they are usually repeats but may differ in a detail not shown here. Equal values may be shown once. Read-outs that look alike come from different tables or passages of the source.

Columns and labels:
[1] = test system: Pseudomonas syringae pv. phaseolicola HB-9 planktonic
[2] = test system: Pseudomonas syringae pv. phaseolicola HB-9 biofilm
[3] = test system: Erwinia carotovora subsp. carotovora (Ecc) biofilm; assay: Ecc biofilm susceptibility, 24 h contact time; type: cell-based; conditions: for Ecc biofilm cell counts (unlabelled fourth line = mean of 3) / Log reduction of Ecc biofilms / Ecc biofilm cell counts (single replicates): 24 h contact time
Source text: Carotovora (Ecc), the Soft Rot of Vegetables Pathogen, in Comparison to Nanocrystalline Silver Powder

[4] = test system: naturally occurring microorganisms (bacteria and fungi) on bean seed surface; conditions: for Bacterial reduction / Fungal reduction / Total microbial reduction: vs untreated seeds, Experiments 1-3
Source text: They included seeds that would normally be discarded during processing in a commercial seed treatment facility—damaged, discoloured, shrivelled or small seeds. Due to the fact they were not cleaned these seeds still contain soil, dirt, plant debris, etc. Therefore, this seed lot was expected to provide a good model for a high natural microbial challenge, with good diversity of organisms and high microbial recovery expected.
These seeds were processed and cleaned in a commercial seed treatment facility. Processing leads to rejection of small, damaged, and/or discoulored seeds, and thus a healthier overall seed lot. After processing, seeds were washed and cleaned, resulting in a significant reduction in soil, dirt or debris.
Experiments were conducted by treating lots of ‘Othello’ and ‘AC Polaris’ seeds with challenges described in Table 10. Seeds were placed individually onto wells of 12-well microtiter plates and treated for 1 h with silver and/or water. After treatment, seeds were rinsed by dipping into fresh phosphate buffer and subsequently transferred to a new 12-well microtiter plate containing fresh phosphate buffer and sonicated for 15-30 min. Sonication allowed for surviving bacterial and fungal to be removed from the seed surface and recovered into the liquid. After 6 days, each of the wells containing seeds were scored based on both: • the turbidity of the liquid in which they were originally immersed for treatment, on day 6. • seed surface area covered by bacterial and/or fungal colonization, also on day 6.
Six seeds were scored in each experiment and each experiment was repeated 3 times independently. Numbers presented on Tables 11, 13, and 15 represent the mean of 6 scores. […] Total microbial scores (bacteria and fungi together) and are represented as percentage of killing on Tables 12, 14, and 16.

[5] = test system: dry bean (Phaseolus vulgaris L) seeds, cultivar Othello; assay: Germination of dry bean seeds with aqueous seed coating under high bacterial load; type: in vivo; conditions: for # seeds germinated / % germination / Day to 25% germination: high bacterial load
Method: The efficacy of high valency silver ions produced by oxysilver nitrate was evaluated as a seed treatment on diseased dry bean seeds. The oxysilver nitrate was applied as an aqueous seed coating on the germination of dry bean (Phaseolus vulgaris L).
Seeds were placed on blotters in Petri plates, were soaked in an excess of water for 3 days, then drained on day 4. The 3-day period of excess water created a very high bacterial load′ on the germinating seeds and high disease pressure due to pathogenic, saprophytic and soft-rot bacteria. This disease pressure was so extreme that the germination rates for experiments 2-5 were essentially zero due to being overwhelmed by the microbial growth.

Orford (Soybean) seeds = conditions: for % of seeds germinated: Day 7 (speed of germination); for % germination: Day 14
Source text: Germination on blotters was scored at 7- and 14-days. Emergence from soil was scored at 21- and 28-days.
To treat seeds, one hundred seeds were placed in a 50-mL Falcon tube and combined with the treatment solution. Seeds were mixed with the treatment for 5-min by gently rolling and inverting the Falcon tube. Coated seeds were placed in an open Petri plate for 30-min to dry. Seeds were sown 10-per pot, set in a greenhouse, and maintained under standard conditions with mercury lamp lighting supplementing daylight from 3:00 pm to 10:00 pm.
Stir constantly. 5% solution—after the 10% solution has equilibrated for 15-min, add 0.5-mL of 10% solution to 0.5-mL of sterile water. Stir constantly. 2.5% solution—add 0.25-mL of 10% solution to 0.75-mL of sterile water. Stir constantly. 1% solution—add 0.1-mL of 10% solution to 0.9-mL of sterile water. Stir constantly. […] Gently roll and invert the tube for 5 min to evenly coat each seed without causing damage. Remove seeds from tube by pouring carefully into an empty Petri plate. Leave exposed (lid off) and air dry seeds for 30 min.
(1) Germination: Place 50 seeds from each treatment onto 25 individual moistened blotters in large Petri plates. Incubate at room temperature for 2-weeks with or without light. Score germination at 7- and 14-days. (2) Emergence: Sow 50 seeds from each treatment into five pots (10-seeds per pot and five pots per treatment). Place in a greenhouse at 22° C. with ample air circulation. Use mercury lamps to supplement lighting (on at 3:00 pm; off at 10:00 pm) if necessary. For pre-emergent plants, water pots as needed to keep soil moist but not wet. Water emergent plants daily. Score emergence at 21 and 28 days.
After seeds were treated and air-dried, they were sown in potted, non-sterile soil in a greenhouse. Alternatively they were placed on moist blotters in large Petri plates.

healthy dry bean seed = assay: Germination of healthy dry bean seed; type: in vivo
[6] = test system: Pseudomonas syringae pv. phaseolicola on bean seed surface; conditions: Experiments 1-3; for Total microbial score: day 6, bacteria + fungi
[7] = lowest concentration (5000 ppm)
[8] = AC Polaris Inoculated, vs untreated seeds
[9] = AC Polaris seeds, inoculated w/ bacteria, 0.1%, 1 h, scored day 6 on scale 0-5, mean of 6 seeds
[10] = Othello Inoculated, vs untreated seeds

O=S(=O)([O-])[O-].[Cu+2] [Copper sulfate]
PspHB-9 Planktonic cell counts ([1]; 1250 ppm): 2.95 log10
PspHB-9 Planktonic cell counts ([1]; 2900 ppm): 0 log10
PspHB-9 Planktonic cell counts ([1]; 4600 ppm): 0 log10
reduction of planktonics [1, 7]: ~48%
PspHB-9 Biofilm cell counts ([2]; 1250 ppm): 5.15 log10
PspHB-9 Biofilm cell counts ([2]; 2900 ppm): 0 log10
PspHB-9 Biofilm cell counts ([2]; 4600 ppm): 0 log10
reduction of biofilms [2, 7]: 17%
concentration required to be effective ([2]; planktonic cells and biofilms): 11460 ppm

oxysilver nitrate [High valency silver]
Ecc biofilm cell counts (unlabelled fourth line = mean of 3) ([3]; 50 ppm): 1.53 log10
Log reduction of Ecc biofilms ([3]; 50 ppm): 2.23
Ecc biofilm cell counts (single replicates) ([3]; 50 ppm, listed as Oxy): 1.60 log10 and 1.00 log10 and 2.00 log10
Ecc biofilm cell counts (unlabelled fourth line = mean of 3) ([3]; 100 ppm): 0.65 log10
Log reduction of Ecc biofilms ([3]; 100 ppm): 3.11
Ecc biofilm cell counts (single replicates) ([3]; 100 ppm, listed as Oxy): 0 log10 (2×) and 1.95 log10
Ecc biofilm cell counts (unlabelled fourth line = mean of 3) ([3]; 200 ppm): 0.70 log10
Log reduction of Ecc biofilms ([3]; 200 ppm): 3.06
Ecc biofilm cell counts (single replicates) ([3]; 200 ppm, listed as Oxy): 0 log10 (2×) and 2.11 log10
Ecc biofilm cell counts (single replicates) ([3]; 500 ppm): 0 log10
Ecc biofilm cell counts (unlabelled fourth line = mean of 3) ([3]; 500 ppm): 0.00 log10
Log reduction of Ecc biofilms ([3]; 500 ppm): 3.76
anti-microbial efficacy compared with nanocrystalline silver ([3]; plant pathogenic Erwinia spp.): as efficacious as nanocrystalline silver
Bacterial reduction ([4]; AC Polaris Non-inoculated): 67% and 90% and 100%
Fungal reduction ([4]; AC Polaris Non-inoculated): 100% and 62%
Total microbial reduction ([4]; AC Polaris Non-inoculated): 81% and 78% and 100%
Bacterial reduction ([4]; Othello Non-inoculated): 80% and 62% and 88%
Fungal reduction ([4]; Othello Non-inoculated): 70% and 100% and 74%
Total microbial reduction ([4]; Othello Non-inoculated): 75% and 86% and 81%
bactericidal and fungicidal efficacy ([4]; various bacterial and fungal species associated with seed surfaces, 3 independent replications): good bactericidal and fungicidal efficacy
# seeds germinated ([5]; 0.1%): 53
% germination ([5]; 0.1%): 35.3%
Day to 25% germination ([5]; 0.1%): 5 days
# seeds germinated ([5]; 0.5%): 53
% germination ([5]; 0.5%): 35.3%
Day to 25% germination ([5]; 0.5%): 5 days
germination higher than Apron Maxx RTA ([5]; 1%, by day 10): 54%
increase of germination compared with the negative control (sterile water) ([5]; 1%, by day 10): 34.7%
# seeds germinated ([5]; 1%): 91
% germination ([5]; 1%): 60.7%
Day to 25% germination ([5]; 1%): 5 days
# seeds germinated ([5]; […]): 51
% germination ([5]; […]): 43.0%
Day to 25% germination ([5]; […]): 5 days
% of seeds germinated (Orford (Soybean) seeds; 0.1%): 28%
% germination (Orford (Soybean) seeds; 0.1%): 50%
% of seeds germinated (Orford (Soybean) seeds; 0.5%): 34.5%
% germination (Orford (Soybean) seeds; 0.5%): 58%
% of seeds germinated (Orford (Soybean) seeds; 1%): 59.4%
% germination (Orford (Soybean) seeds; 1%): 64%
germination rate higher than water (Orford (Soybean) seeds; 1%, after 14 days): 34%
% of seeds germinated (Orford (Soybean) seeds; […]): 29.6%
% germination (Orford (Soybean) seeds; […]): 54%
bacterial growth on treated seeds (Orford (Soybean) seeds; soybean seeds and blotters): did not appear to have major bacterial growth
# seeds germinated (healthy dry bean seed; 0.1%): 84
% germination (healthy dry bean seed; 0.1%): 84%
Day to 50% germination (healthy dry bean seed; 0.1%): 6.5 days
Day to 100% germination (healthy dry bean seed; 0.1%): 9.0 days
# seeds germinated (healthy dry bean seed; 0.5%): 86
% germination (healthy dry bean seed; 0.5%): 86%
Day to 50% germination (healthy dry bean seed; 0.5%): 6.0 days
Day to 100% germination (healthy dry bean seed; 0.5%): 9.0 days
# seeds germinated (healthy dry bean seed; 1%): 89
% germination (healthy dry bean seed; 1%): 89%
Day to 100% germination (healthy dry bean seed; 1%): 9.0 days
# seeds germinated (healthy dry bean seed; […]): 81
% germination (healthy dry bean seed; […]): 81%
Day to 100% germination (healthy dry bean seed; […]): 9.0 days
germination compared with water control or Apron Maxx RTA (healthy dry bean seed; healthy dry bean seed): more rapid germination and higher percent germination rate
PspHB-9 Planktonic cell counts ([1]; 100 ppm): 0 log10
PspHB-9 Planktonic cell counts ([1]; 500 ppm): 0 log10
PspHB-9 Planktonic cell counts ([1]; 1000 ppm): 0 log10
eradication of planktonic ([1]; at the lowest concentration): 100%
PspHB-9 Biofilm cell counts ([2]; 100 ppm): 0 log10
PspHB-9 Biofilm cell counts ([2]; 500 ppm): 0 log10
PspHB-9 Biofilm cell counts ([2]; 1000 ppm): 0 log10
eradication of biofilm ([2]; at the lowest concentration): 100%
Bacterial reduction [6, 8]: 100% and 96%
Total microbial reduction [6, 8]: 100% and 96%
Total microbial score ([6]; AC Polaris seeds, inoculated w/ bacteria, 0.1%, 1 h): 0
Total microbial score ([6]; AC Polaris seeds, inoculated w/ bacteria, 0.1%, 1 h, listed as High valency silver nitrate 1): 0.16
Bacteria score [6, 9]: 0
Fungi score [6, 9]: 0
Bacteria score ([6]; AC Polaris seeds, inoculated w/ bacteria, 0.1%, 1 h, scored day 6 on scale 0-5, mean of 6 seeds, listed as High valency silver nitrate 1): 0.16
Bacterial reduction [6, 10]: 41% and 78% and 60%
Fungal reduction [6, 10]: 78% and 75% and 100%
Total microbial reduction [6, 10]: 65% and 77% and 79%
Total microbial score ([6]; Othello seeds, inoculated w/ bacteria, 0.1%, 1 h): 1.83 and 1.32 and 1.66
